# Read-outs that look alike come from different tables or passages of the source.
# How the values were obtained:
# Muscarinic receptor 2 = experiment: Affinity for the muscarinic M2 receptor ([^3 H]quinuclidinyl benzylate binding, rat brain); conditions: 0.3 nM ^3 H quinuclidinyl benzylate, 60 min, 25° C., pH 7.5
# Procedure: The preparation is carried out from the brains of male rats weighing 150 to 200 g (Iffa Credo).
# The brains are ground up (Teflon-glass) in a 0.32 M sucrose solution. The homogenate is centrifuged for 10 minutes at 1000 g (0-4° C.).
# The supernatant obtained is collected and centrifuged again at 30000 g for 15 minutes (0-4° C.).
# The deposit is put in suspensions in a 50 mM Tris pH 7.5 buffer and the new homogenate is centrifuged again at 30000 g for 15 minutes (0-4° C.).
# After elimination of the supernatants, the deposits can be used immediately or kept for up to one month at -30° C.
# For one experiment the deposits are firstly defrosted, if necessary, at ambient temperature and put in suspension using a Dounce grinder in a 50 mM Tris pH 7.5 buffer. 2 ml aliquots are incubated for 60 minutes at 25° C. in the presence of 0.3 nM of
# ^3 H quinuclidinyl benzylate either on its own, or with the product to be tested, or with benzatropine at 10^-5 M in order to determine the non-specific fixed radioactivity.
# At the end of the incubation, the tubes of incubate are cooled down to 4° C. and the incubate is filtered rapidly on Whatman GF/C filters. The filters are rinsed with 3×5 ml of 50 mM Tris pH 7.5 buffer then measurements are carried out by liquid scintillation (Henry I Yamamura, Solomon H. Synder, Proc. Nat. Acad Sc. (1974) 71, No. 5, 1725-1729).
# (§1) The results are expressed in IC50 (concentration necessary to inhibit 50% of the fixed specific radio-activity).
# [1] = tested on: barium chloride-induced contractions of isolated ileum; experiment: Antagonism of barium chloride-induced contractions of isolated guinea-pig ileum; type: cell-based; conditions: read-out: Antagonistic to BaCl2, IC50
# Procedure: (§2) The interaction of the compounds with different receptors was evaluated on the isolated ileum of a guinea-pig according to the following method.
# (§3) 2.5-3 cm segments of the guinea-pigs, ileum were washed and immediately suspended in a bath containing 10 ml of a Tyrode solution at 37° C. and aerated with a mixture of oxygen (95%) and carbon dioxide (5%). After a stabilization period of at least 30 minutes, the contractions are recorded, maintaining the preparation under constant pressure of 1 g, using a sensor connected to a polygraph. […] The following dose was only added to the bath after the preparation returned to its base line. Arecoline was used as reference product. The antagonistic action was evaluated on contractions induced by acetylcholine (1×10^-6 M), histamine (1×10^-5 M) and barium chloride (2×10^-5 M). […] The contact time before adding the agonist was one minute.
# (§4) For each compound the dose-response curves are obtained with 4 to 6 different concentrations and 3 to 5 independent tests. The agonistic activity is expressed by pD2 (negative logarithm of the dose which produces 50% of the maximum effect). The antagonistic activity is expressed by IC50 (concentration inhibiting 50% of the maximum response).
# isolated ileum = experiment: Agonistic action on isolated guinea-pig ileum; type: cell-based; conditions: negative logarithm of the dose producing 50% of the maximum effect; for EC50: Cavia porcellus, read-out: Agonistic action pD2 (converted)
# Procedure: as §2, §3, §4
# [2] = tested on: acetylcholine-induced contractions of isolated ileum; experiment: Antagonism of acetylcholine-induced contractions of isolated guinea-pig ileum; type: cell-based; conditions: read-out: Antagonistic to ACh, IC50
# Procedure: as §2, §3, §4
# [3] = tested on: histamine-induced contractions of isolated ileum; experiment: Antagonism of histamine-induced contractions of isolated guinea-pig ileum; type: cell-based; conditions: histamine 1×10^-5 M, contact time one minute, 37° C., read-out: Antagonistic to Histam., IC50
# Procedure: as §2, §3, §4
# Muscarinic receptor 1 = target: T1, Muscarinic receptor 1 (Rattus norvegicus, UniProt P08482); experiment: Affinity for the muscarinic M1 receptor ([^3 H]pirenzepine binding, rat cortex); conditions: 0.25 nM ^3 H pirenzepine, 60 min, 25° C., pH 7.4
# T1 construct: cortex removed from the brains of male rats weighing 150 to 200 g (Iffa Credo); from tissue; host or cells: rat cerebral cortex homogenate
# T1 sequence (P08482 1-460): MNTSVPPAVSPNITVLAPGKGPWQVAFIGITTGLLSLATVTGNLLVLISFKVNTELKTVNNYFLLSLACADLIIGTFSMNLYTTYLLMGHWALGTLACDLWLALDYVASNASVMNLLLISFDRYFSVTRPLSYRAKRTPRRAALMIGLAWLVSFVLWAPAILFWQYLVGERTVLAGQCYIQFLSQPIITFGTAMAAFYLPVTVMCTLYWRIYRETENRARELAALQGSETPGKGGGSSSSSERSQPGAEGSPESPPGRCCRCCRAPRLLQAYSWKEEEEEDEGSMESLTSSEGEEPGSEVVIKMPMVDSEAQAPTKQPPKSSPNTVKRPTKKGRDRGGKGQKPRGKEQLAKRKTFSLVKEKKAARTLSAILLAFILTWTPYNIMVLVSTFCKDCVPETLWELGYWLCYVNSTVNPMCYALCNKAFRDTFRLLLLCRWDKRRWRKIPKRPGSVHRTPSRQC
# Procedure: Its preparation is carried out from cortex removed from the brains of male rats weighing 150 to 200 g (Iffa Credo) ground up in a Polytron in a 10 mM Na/K pH 7.4 buffer. After incubation (0.5 ml aliquots of homogenate) for 60 minutes at 25° C. in the presence of 0.25 nM of ^3 H pirenzepine either on its own, or with the product to be tested, or with an excess of pirenzepine at 10^-5 M (in order to determine the non-specific fixed radioactivity), the incubates are cooled down and filtered.
# The filtration is carried out on Whatman GF/C filters prewashed in a 0.05% polyethylene imine solution. The filters are rinsed with 3×5 ml of 10 mM Na/K pH 7.4 phosphate buffer, then measurements are carried out by liquid scintillation.
# as §1
# [4] = tested on: cholinomimetic effects induced by carbachol; experiment: In vivo anti-cholinergic action: inhibition of cholinomimetic effects induced by carbachol in mice; design: species or system CD1 male mice; conditions: for ED50 / ED (1 degree C): Mus musculus, ip, 0.5 h; for ED (1 degree C): rectal temperature, read-out: Dose changing body temperature (hypothermic effect of carbachol) by 1° C.
# Procedure: The anti-cholinergic activity of the compounds was determined by evaluating the capacity to inhibit the cholino-mimetic effects induced by carbachol. Atropine sulphate was used as reference product.
# CD1 male mice weighing 25 to 30 g are used. They are divided into groups of 6 animals and treated by intraperi-toneal route at scalar doses of the products or 0.25% Methocel for the controls. 12 animals are used for each dose. 30 minutes after the administration of the compounds, 1 mg/kg of carbachol, dissolved in physiological serum, was injected into the mice by sub-cutaneous route.
# Each animal was examined 30 minutes after the injection of carbachol to evaluate the presence of diarrhoea, salivation and weeping; the body temperature was also measured using a thermocouple inserted 1.5 cm inside the rectum.
# For each compound, we have determined the dose which can inhibit, in 50% of the animals, the appearance of cholinomimetic symptoms induced by carbachol and […] the hypothermic effect induced by the cholinergic agent by 1° C.
# [5] = Cavia porcellus, barium chloride 2×10^-5 M, contact time one minute, 37° C.
# [6] = Cavia porcellus, acetylcholine 1×10^-6 M, contact time one minute, 37° C.
# [7] = i.p., 30 min before carbachol 1 mg/kg s.c., read-out: Dose inhibiting diarrhoea in 50% of the animals
# [8] = i.p., 30 min before carbachol 1 mg/kg s.c., read-out: Dose inhibiting salivation in 50% of the animals
# [9] = i.p., 30 min before carbachol 1 mg/kg s.c., read-out: Dose inhibiting weeping in 50% of the animals
# [10] = i.p., 30 min before carbachol 1 mg/kg s.c.
Molecule,IC50 (Muscarinic receptor 2),"IC50 [1, 5]",EC50 (isolated ileum),"IC50 [2, 6]",IC50 ([3]; Cavia porcellus),IC50 (Muscarinic receptor 1),further results
"O=C1CC(O)CN1S(=O)(=O)c1ccc(N2CCCCC2)cc1 (stereo not shown) [Example 4, 4-hydroxy-1-[[4-(1-piperidinyl)-phenyl]-sulphonyl]-2-pyrrolidinone]",10 µM,2.5 µM,> 100 µM,1200 nM,> 10 µM,560 nM,–
"C[N+](C)(C)CCOC(N)=O [Carbochol, carbachol, reference compound]",–,–,–,–,–,–,"decrease of the rectal temperature ([4]; 1 mg/kg s.c., control mice): about 2.5 °C; induction of diarrhoea, salivation and weeping ([4]; 1 mg/kg s.c., control mice): induced diarrhoea, salivation and weeping in all the control mice"
"O=S(=O)(c1ccc(N2CCCCCC2)cc1)N1CC(O)CC1=S (stereo not shown) [Example 7, 1-[[4-(hexahydro-1H-azepin-1-yl)-phenyl]-sulphonyl]-4-hydroxy pyrrolidine thione]",–,3.6 µM,> 100 µM,510 nM,> 10 µM,83 nM,"ED50 [4, 7]: 5 mg/kg; ED50 [4, 8]: 50 mg/kg; ED50 [4, 9]: > 50 mg/kg; ED (1 degree C) [4, 10]: 20 mg/kg"
"CN1[C@@H]2CC[C@H]1C[C@@H](OC(=O)C(CO)c1ccccc1)C2 (stereo partly shown) [Atropine, reference compound]",–,–,–,–,–,–,ED50 ([4]; read-out: Dose inhibiting diarrhoea in 50% of the animals): 0.04 mg/kg; ED50 ([4]; read-out: Dose inhibiting salivation in 50% of the animals): 0.06 mg/kg; ED50 ([4]; read-out: Dose inhibiting weeping in 50% of the animals): 0.05 mg/kg; IC50 ([2]; Cavia porcellus): 9.5 nM
"CCN(CC)c1ccc(S(=O)(=O)N2CC(O)CC2=O)cc1 (stereo not shown) [Example 1, 1-[[4-(diethylamino)-phenyl]sulphonyl]-4-hydroxy-2-pyrrolidinone]",> 5 µM,> 10 µM,> 100 µM,860 nM,> 10 µM,370 nM,–
"COc1ccc(Cc2nccc3cc(OC)c(OC)cc23)cc1OC [Papaverine, papaverine, reference compound]",–,–,–,–,–,–,IC50 ([1]; Cavia porcellus): 45 µM
"COC(=O)C1=CCCN(C)C1 [Arecoline, reference compound]",–,–,0.209 µM,–,–,–,–
"1-[[4-(dimethylamino)-phenyl]-sulphonyl]-4-(2,2-dimethyl-1-oxo-propoxy)-2-pyrrolidinone [Example 2]",> 5 µM,–,–,–,–,720 nM,"IC50 ([1]; barium chloride 2×10^-5 M, contact time one minute, 37° C.): > 10 µM; Agonistic action pD2 (isolated ileum): < 4; IC50 ([2]; acetylcholine 1×10^-6 M, contact time one minute, 37° C.): 5500 nM; IC50 [3]: > 10 µM"
O=S(=O)(c1ccc(N2CCCCC2)cc1)N1CC(O)CC1=S (stereo not shown) [Example 5],> 5 µM,> 10 µM,> 100 µM,1400 nM,> 10 µM,170 nM,"ED50 [4, 7]: 6 mg/kg; ED50 [4, 8]: 50 mg/kg; ED50 [4, 9]: > 50 mg/kg; ED (1 degree C) [4, 10]: 25 mg/kg; selectivity of in vivo anticholinergic action (in words) ([4]; contrary to atropine): selective anticholingeric action at the level of the intestinal musculature"
"O=C1CC(O)CN1S(=O)(=O)c1ccc(N2CCCCCC2)cc1 (stereo not shown) [Example 6, 1-[[4-(hexahydro-1H-azepin-1-yl)-phenyl]-sulphonyl]-4-hydroxy-pyrrolidinon]",–,2.5 µM,> 100 µM,110 nM,> 10 µM,62 nM,"ED50 [4, 7]: 12 mg/kg; ED50 [4, 8]: > 50 mg/kg; ED50 [4, 9]: > 50 mg/kg; ED (1 degree C) [4, 10]: 50 mg/kg"
"CCN(CC)c1ccc(S(=O)(=O)N2CC(O)CC2=S)cc1 (stereo not shown) [Example 3, 1-[[4-(diethylamino)-phenyl]-sulphonyl]-4-hydroxy-2-pyrrolidine thione]",> 5 µM,> 10 µM,> 100 µM,3000 nM,> 10 µM,370 nM,–

# — patent US5204341A, “1-arylsulphonyl-2-pyrrolidone derivatives, their preparation process and the new intermediates obtained, their use as medicaments and the pharmaceutical compositions containing them” (priority 1990, dated 1993)
